Experiments:
[1] = reported; cited from earlier work
[2] = Sensory profiling (QDA) by trained sensory panel, unstructured line scales 0-100; type: in vivo, human
From the text: A trained sensory panel at the Reading Sensory Science Centre (UK) were employed for sensory profiling of the samples. There were 10 panellists with between 1 and 9 years' experience. A QDA (quantitative descriptive analysis) profiling approach was taken. The panel used the same vocabulary that they had developed as a consensus for the tasting sessions including the term liquorice flavour which is characteristic note of steviol glycosides. The panel were retrained at the start of the sample set over 3 separate tasting sessions. This re-training focused on ensuring that they could reliably score sweetness relative to the new concentration of sucrose standard positions. Rating was carried out independently using unstructured lines scales (scaled 0-100), in duplicate, in isolated sensory booths. However, in order to improve discrimination for sweetness, the four sucrose samples were used as standards and the mean values for each of these samples, as agreed by the panel, are shown in Table 1 below. At the start of each scoring session the panel tasted the four reference samples in order of increasing strength to re-familiarise themselves with the positioning of these levels of sweetness on the line scale. The reference samples (10 mL) were served in transparent polystyrene cups (30 mL). They then palate cleansed with warm filtered tap water and low salt crackers (Carr's water crackers) before commencing the sample tasting session, and again between each sample scoring session. Samples, labelled with random 3 digit codes, were presented in a balanced presentation order in a monadic sequential manner with a maximum of 6 samples per day. Samples were served at 23-24° C. (room temperature) with air conditioning of the room set to 23° C.

Compound | sweet potency relative to sucrose [1] [×] | Mean Rating (0-100), sweetness standard ([2]; Standard 1, sucrose 2.0 % w/v) | Mean Rating (0-100), sweetness standard ([2]; Standard 2, sucrose 4.0 % w/v) | Mean Rating (0-100), sweetness standard ([2]; Standard 3, sucrose 6.0 % w/v) | Mean Rating (0-100), sweetness standard ([2]; Standard 4, sucrose 8.0 % w/v)
C[C@H](CC[C@@H](O[C@@H]1O[C@H](CO[C@@H]2O[C@H](CO)[C@@H](O)[C@H](O)[C@H]2O)[C@@H](O)[C@H](O)[C@H]1O[C@@H]1O[C@H](CO)[C@@H](O)[C@H](O)[C@H]1O)C(C)(C)O)[C@H]1CC[C@@]2(C)[C@@H]3CC=C4[C@@H](CC[C@H](O[C@@H]5O[C@H](CO[C@@H]6O[C@H](CO)[C@@H](O)[C@H](O)[C@H]6O)[C@@H](O)[C@H](O)[C@H]5O)C4(C)C)[C@]3(C)[C@H](O)C[C@]12C [Mogroside V] | ~400 |  |  |  | 
OC[C@H]1O[C@@](CO)(O[C@H]2O[C@H](CO)[C@@H](O)[C@H](O)[C@H]2O)[C@@H](O)[C@@H]1O [Sucrose] |  | 10 | 35 | 75 | 100

Source: patent US20210030039A1, “Prebiotic Compositions And Methods Of Production Thereof” (Optibiotix Limited, priority 2018, published 2021)
